# Where two headings read alike, the source gives them in different places. Bridge positions count the residues as written; N and C are the ends. Ends that are not written are not given here. Peptide text beside a SMILES is read from it.
# Key:
# [1] = system: chicken rectum
# Method: Relaxant activity in chicken rectum was measured in accordance with the method of […] and Currie ([…]. and Matsuo, H., Biochem. Biophys. Res. Commun., 118, 131-139, 1984; Currie, […]., Cole, […]. and Needleman, P. Science, 221, 71-73, 1983). The values are averages of six repeats. […] Although fCNP lacked the tail sequence at the C-terminal which had been considered to be important for analog peptides in displaying biological activities such as diuretic action (Watanabe, T. X., Noda, Y., Chino […]. and Imai, M. Eur. J. […] Relative activity is defined as the activity of equimolar amount of peptides when the activity of α-hANP is 100.
# [2] = system: anesthetized rats; experiment: Vasodepressor action (blood pressure) in anesthetized rats; assay type: in vivo, rat; set-up: decrease of blood pressure at the contract phase of heart: unit not given here
# Method: Diuretic action of fCNP was measured in accordance with the method described in […] et al and Sudoh et al ([…]. et al., Biochem. Biophys. Res. Commun., 118, 131-139, 1984; Sudoh, […]., Minamino, N. and Matsuo, H. Nature, 332, 78-81 , 1988). Male SD rats (weight 300-400 g) were anesthetized by intraperitoneally receiving 50 mg/kg pentobarbital, and a tracheal cannula (PE-240, Cray Adams) was provided to secure an airway. A cannula for measuring the blood pressure (PE-50) was inserted into one of the femoral arteries, and Ringer solution was injected through a cannula (PE-10) inserted into the femoral venous, at a constant rate of 1.8 ml/hr. Urine was collected into a test tube through a bladder cannula of silastic tube (inside diameter 0.02 inch, outside diameter 0.037 inch, Dow Corning). The collection of urine was carried out for 15 min before the administration of the peptides, at 5 min intervals after the administration till 15 min, and then at appropriate time intervals. The effect of the peptides was measured by comparing the amount of the urine samples and the concentration of the electrolyte in the urine samples, as well as by the change of the blood pressure. In the above assay, a predetermined amount of fCNP was dissolved in 0.1N acetic acid, and neutralized with one tenth volume of 1.3M Tris solution. […]
# [3] = system: anesthetized rats; experiment: Diuretic and natriuretic action in anesthetized rats; assay type: in vivo, rat; conditions: for excretion Cl- / excretion K+ / excretion Na+ / excretion urine: urine collected 15 min before and after injection, Means±S.E.M., three rats
# Method: Diuretic action of fCNP was measured in accordance with the method described in Kangawa et al and Sudoh et al (Kangawa, K. et al., Biochem. Biophys. Res. Commun., 118, 131-139, 1984; Sudoh, T., Kangawa, K., Minamino, N. and Matsuo, H. Nature, 332, 78-81 , 1988). Male SD rats (weight 300-400 g) were anesthetized by intraperitoneally receiving 50 mg/kg pentobarbital, and a tracheal cannula (PE-240, Cray Adams) was provided to secure an airway. A cannula for measuring the blood pressure (PE-50) was inserted into one of the femoral arteries, and Ringer solution was injected through a cannula (PE-10) inserted into the femoral venous, at a constant rate of 1.8 ml/hr. Urine was collected into a test tube through a bladder cannula of silastic tube (inside diameter 0.02 inch, outside diameter 0.037 inch, Dow Corning). The collection of urine was carried out for 15 min before the administration of the peptides, at 5 min intervals after the administration till 15 min, and then at appropriate time intervals. The effect of the peptides was measured by comparing the amount of the urine samples and the concentration of the electrolyte in the urine samples, as well as by the change of the blood pressure.
# In the above assay, a predetermined amount of fCNP was dissolved in 0.1N acetic acid, and neutralized with one tenth volume of 1.3M Tris solution. Then, the solution was diluted with 50 μl of a sterile physiological water, and administered through the cervical vein.
# In Table 3, diuretic and natriuretic responses are shown in terms of the amount of the urine, the percentages in the decreases of the excretion of Na^+, K^+ and Cl^- (Means±S.E.M.), in which urine samples were collected separately over 15 min before and after the intravenous injection of the peptides to anesthetized rats. Three rats were used for each peptide.
# [4] = relaxant activity of equimolar amount of peptide, activity of α-hANP = 100, averages of six repeats
compound,measurement,setting,value
CC[C@H](C)[C@@H]1NC(=O)[C@H](CCCNC(=N)N)NC(=O)[C@H](CC(=O)O)NC(=O)[C@H](CC(C)C)NC(=O)[C@H](CCCCN)NC(=O)[C@H](C(C)C)NC(=O)CNC(=O)[C@H](Cc2ccccc2)NC(=O)[C@@H](NC(=O)CNC(=O)[C@H](CCCNC(=N)N)NC(=O)[C@H](CO)NC(=O)[C@H](Cc2ccc(O)cc2)NC(=O)CN)CSSC[C@@H](C(=O)O)NC(=O)CNC(=O)[C@H](CC(C)C)NC(=O)CNC(=O)[C@H](CO)NC(=O)[C@H](Cc2ccccc2)NC(=O)[C@H](C)NC(=O)CNC1=O [fCNP] (H-GYSRGCFGVKLDRIGAFSGLGC-OH; disulfide 6-22),relative activity,[1],321
same,relaxant activity in chicken rectum (in words),[1],strong relaxant activity which was comparable to pCNP
same,relaxant activity in chicken rectum (in words),[1]; listed as synthetic fCNP,positive relaxant activity
same,"relaxant activity, times higher than fANP-21",[1]; relative to fANP-21,~7 times
same,"relaxant activity, times higher than α-hANP",[1]; relative to α-hANP,about 3 times
same,decrease of blood pressure at the contract phase of heart,"[2]; 10 nmol of fCNP, over a period of 30 min, typical experiment",25-30
same,vasodepressor action (in words),[2]; anesthetized rats,weak vasodepressor action
same,excretion Cl-,[3]; 30 μg/kg intravenous,193 ± 50%
same,excretion K+,[3]; 30 μg/kg intravenous,163 ± 54%
same,excretion Na+,[3]; 30 μg/kg intravenous,184 ± 26%
same,excretion urine,[3]; 30 μg/kg intravenous,192 ± 51%
same,excretion Cl-,[3]; 100 μg/kg intravenous,251 ± 43%
same,excretion K+,[3]; 100 μg/kg intravenous,217 ± 58%
same,excretion Na+,[3]; 100 μg/kg intravenous,344 ± 36%
same,excretion urine,[3]; 100 μg/kg intravenous,315 ± 24%
same,excretion Cl-,[3]; 300 μg/kg intravenous,369 ± 6%
same,excretion K+,[3]; 300 μg/kg intravenous,210 ± 33%
same,excretion Na+,[3]; 300 μg/kg intravenous,428 ± 29%
same,excretion urine,[3]; 300 μg/kg intravenous,410 ± 27%
same,diuretic and natriuretic actions compared to that of α-hANP,"[3]; ratio to α-hANP, anesthetized rats",about 1/100
"pBNP-26: diuretic peptide; B-type (brain) natriuretic peptide (DSGCFGRRLDRIGSLSGLGCNVLRRY; ends and bridges not checked; cysteine pairing not given here; UniProt P07634 106-131, looked up) [reference compound]",relative activity,[1]; [4],270
"α-hANP: A-type (atrial) natriuretic peptide used as reference, activity set to 100 (SLRRSSCFGGRMDRIGAQSGLGCNSFRY; ends and bridges not checked; cysteine pairing not given here; UniProt P01160 124-151, looked up) [reference compound]",relative activity,[1]; [4],100
same,excretion Cl-,[3]; 3.0 μg/kg intravenous,445 ± 67%
same,excretion K+,[3]; 3.0 μg/kg intravenous,291 ± 19%
same,excretion Na+,[3]; 3.0 μg/kg intravenous,572 ± 84%
same,excretion urine,[3]; 3.0 μg/kg intravenous,461 ± 51%
